Reference: ChEMBL document CHEMBL1135072, “Substituted N-(3,5-dichlorobenzenesulfonyl)-L-prolyl-phenylalanine analogues as potent VLA-4 antagonists” (Bioorg Med Chem Lett, 2002)

What was measured:
[1] = biological target: Integrin alpha-4/beta-1 (Homo sapiens, UniProt P05556+P13612); experiment: Inhibitory activity against very late antigen-4 (VLA-4) using VCAM-Ig ligand.; format: protein-complex assay
[2] = biological target: T1, Integrin alpha-4/beta-7 (Homo sapiens) (UniProt P13612+P26010); experiment: Inhibition of MadCAM-Ig binding to alpha-4 beta-7 integrin at 20 uM; format: protein-complex assay
[3] = Volume of distribution was reported in Sprague-Dawley rat; details: in vivo
[4] = species on record: Rattus norvegicus; experiment: The plasma concentration versus time curve (AUC) was determined; details: in vivo
[5] = Plasma clearance was reported in Sprague-Dawley rat
[6] = biological target: T1, Integrin alpha-4/beta-7 (Homo sapiens); experiment: Inhibition of MadCAM-Ig binding to alpha-4 beta-7 integrin at 0.1 uM; format: protein-complex assay
[7] = in vivo; details: Sprague-Dawley, rat, plasma
[8] = biological target: T2, Integrin alpha-4/beta-7 (Homo sapiens, UniProt P13612+P26010); experiment: Inhibition of MadCAM-Ig binding to alpha-4 beta-7 integrin; format: protein-complex assay
T2 sequence (P13612 whole entry): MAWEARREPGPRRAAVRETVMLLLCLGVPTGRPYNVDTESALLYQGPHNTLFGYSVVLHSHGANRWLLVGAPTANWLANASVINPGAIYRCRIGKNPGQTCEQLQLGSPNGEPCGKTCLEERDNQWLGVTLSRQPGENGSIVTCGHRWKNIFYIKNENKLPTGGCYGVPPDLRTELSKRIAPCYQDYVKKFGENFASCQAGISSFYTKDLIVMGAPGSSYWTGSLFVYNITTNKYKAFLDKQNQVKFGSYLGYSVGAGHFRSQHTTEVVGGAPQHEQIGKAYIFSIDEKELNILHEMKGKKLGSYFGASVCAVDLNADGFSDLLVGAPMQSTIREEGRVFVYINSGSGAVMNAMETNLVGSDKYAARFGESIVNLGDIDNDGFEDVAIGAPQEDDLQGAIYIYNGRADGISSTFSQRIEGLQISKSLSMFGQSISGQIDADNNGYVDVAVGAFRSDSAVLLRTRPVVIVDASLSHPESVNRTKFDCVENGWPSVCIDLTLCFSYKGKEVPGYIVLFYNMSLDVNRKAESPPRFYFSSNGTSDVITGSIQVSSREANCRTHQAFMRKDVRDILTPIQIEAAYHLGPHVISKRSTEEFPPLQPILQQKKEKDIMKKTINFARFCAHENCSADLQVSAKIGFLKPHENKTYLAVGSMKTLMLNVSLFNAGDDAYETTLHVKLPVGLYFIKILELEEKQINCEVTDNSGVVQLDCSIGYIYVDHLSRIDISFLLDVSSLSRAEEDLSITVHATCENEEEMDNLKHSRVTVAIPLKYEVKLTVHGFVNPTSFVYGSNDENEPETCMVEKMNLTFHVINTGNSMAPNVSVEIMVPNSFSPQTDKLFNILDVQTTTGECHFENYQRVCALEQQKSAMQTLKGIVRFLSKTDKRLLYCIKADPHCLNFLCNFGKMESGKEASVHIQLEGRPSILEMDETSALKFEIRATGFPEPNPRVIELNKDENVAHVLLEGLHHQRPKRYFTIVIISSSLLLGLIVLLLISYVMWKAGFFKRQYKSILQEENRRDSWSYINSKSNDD
T2 sequence (P26010 whole entry): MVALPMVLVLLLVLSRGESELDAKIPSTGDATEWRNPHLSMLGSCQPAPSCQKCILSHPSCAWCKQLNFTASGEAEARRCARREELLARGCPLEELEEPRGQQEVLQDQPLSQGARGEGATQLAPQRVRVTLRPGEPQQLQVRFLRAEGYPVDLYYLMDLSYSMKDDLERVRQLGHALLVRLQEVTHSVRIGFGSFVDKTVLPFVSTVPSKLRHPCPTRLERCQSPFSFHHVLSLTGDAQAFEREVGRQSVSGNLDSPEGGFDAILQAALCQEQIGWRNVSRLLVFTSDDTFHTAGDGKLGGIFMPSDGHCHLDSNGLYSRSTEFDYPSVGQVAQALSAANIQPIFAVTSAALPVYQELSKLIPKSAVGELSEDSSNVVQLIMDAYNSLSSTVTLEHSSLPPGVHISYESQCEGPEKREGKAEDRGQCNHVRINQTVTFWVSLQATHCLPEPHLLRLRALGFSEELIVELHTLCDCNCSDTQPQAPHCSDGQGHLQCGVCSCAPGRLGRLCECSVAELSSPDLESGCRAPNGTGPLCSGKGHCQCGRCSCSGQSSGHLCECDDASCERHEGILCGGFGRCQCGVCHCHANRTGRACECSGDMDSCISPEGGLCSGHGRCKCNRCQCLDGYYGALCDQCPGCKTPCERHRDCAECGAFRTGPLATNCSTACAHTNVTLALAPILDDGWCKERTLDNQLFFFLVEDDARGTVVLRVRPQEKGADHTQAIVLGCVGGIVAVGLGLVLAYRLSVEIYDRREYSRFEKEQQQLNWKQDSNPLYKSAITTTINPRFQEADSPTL

Integrin alpha-4/beta-1, sequence (P05556 whole entry, one chain of several): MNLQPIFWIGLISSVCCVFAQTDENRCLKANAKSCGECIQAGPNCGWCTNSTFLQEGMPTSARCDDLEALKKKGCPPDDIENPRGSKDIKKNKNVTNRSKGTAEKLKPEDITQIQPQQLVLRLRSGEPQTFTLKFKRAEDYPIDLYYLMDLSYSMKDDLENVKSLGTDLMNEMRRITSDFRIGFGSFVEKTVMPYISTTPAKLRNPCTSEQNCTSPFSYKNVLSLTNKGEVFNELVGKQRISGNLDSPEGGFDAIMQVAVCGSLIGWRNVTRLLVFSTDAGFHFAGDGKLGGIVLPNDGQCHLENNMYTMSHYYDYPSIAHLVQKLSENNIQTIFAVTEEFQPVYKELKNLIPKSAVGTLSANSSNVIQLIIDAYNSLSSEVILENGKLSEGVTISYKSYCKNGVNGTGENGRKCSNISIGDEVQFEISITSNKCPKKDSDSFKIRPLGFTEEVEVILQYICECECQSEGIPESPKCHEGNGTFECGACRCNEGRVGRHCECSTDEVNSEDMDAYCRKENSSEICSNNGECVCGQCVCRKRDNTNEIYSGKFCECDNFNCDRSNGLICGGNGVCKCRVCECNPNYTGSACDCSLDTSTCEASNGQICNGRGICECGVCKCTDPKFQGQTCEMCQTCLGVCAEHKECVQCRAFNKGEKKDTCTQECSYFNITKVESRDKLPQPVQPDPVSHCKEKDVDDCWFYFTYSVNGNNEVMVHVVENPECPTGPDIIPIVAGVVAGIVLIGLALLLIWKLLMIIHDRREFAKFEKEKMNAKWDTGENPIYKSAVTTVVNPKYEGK

Compound | IC50 [1] [nM] | also measured
O=C(O)[C@H](Cc1ccc(-c2ccccc2)cc1)NC(=O)[C@@H]1CCCN1S(=O)(=O)c1cc(Cl)cc(Cl)c1 | 0.65 | 
O=C(O)[C@H](Cc1ccc(F)cc1)NC(=O)[C@@H]1CCCN1S(=O)(=O)c1cc(Cl)cc(Cl)c1 | 0.48 | 
O=C(O)[C@H](Cc1ccncc1)NC(=O)[C@@H]1CCCN1S(=O)(=O)c1cc(Cl)cc(Cl)c1 | 0.67 | inhibition [2]: 45%
C[C@@]1(C(=O)N[C@@H](Cc2ccc(F)cc2)C(=O)O)CCCN1S(=O)(=O)c1cc(Cl)cc(Cl)c1 | 1.2 | Vd [3]: 1.2 L/kg; plasma concentration [4]: ~ 1 nM; clearance [5]: 44 mL/min/kg; inhibition [6]: < 5%; half-life [7]: 72 min
O=C(O)[C@H](Cc1cccnc1)NC(=O)[C@@H]1CCCN1S(=O)(=O)c1cc(Cl)cc(Cl)c1 | 0.86 | IC50 [8]: 2100 nM
O=C(O)[C@H](Cc1ccccc1Cl)NC(=O)[C@@H]1CCCN1S(=O)(=O)c1cc(Cl)cc(Cl)c1 | 0.99 | 
C[C@@]1(C(=O)N[C@@H](Cc2ccc(Cl)cc2)C(=O)O)CCCN1S(=O)(=O)c1cc(Cl)cc(Cl)c1 | 2.3 | inhibition [6]: < 16%
CC(C)(C)Oc1ccc(C[C@H](NC(=O)[C@@H]2CCCN2S(=O)(=O)c2cc(Cl)cc(Cl)c2)C(=O)O)cc1 | 0.22 | 
O=C(O)[C@H](Cc1cc(F)cc(F)c1)NC(=O)[C@@H]1CCCN1S(=O)(=O)c1cc(Cl)cc(Cl)c1 | 1.1 | 
COc1ccc(C[C@H](NC(=O)[C@]2(C)CCCN2S(=O)(=O)c2cc(Cl)cc(Cl)c2)C(=O)O)cc1 | 0.59 | Vd [3]: 1.4 L/kg; clearance [5]: 47 mL/min/kg; inhibition [6]: 16%; half-life [7]: 36 min
C[C@]1(C(=O)N[C@H](Cc2ccccc2)C(=O)O)CCCN1S(=O)(=O)c1cc(Cl)cc(Cl)c1 | 28400 | 
O=C(O)[C@H](Cc1ccc(Br)cc1)NC(=O)[C@@H]1CCCN1S(=O)(=O)c1cc(Cl)cc(Cl)c1 | 0.92 | 
CCc1ccc(C[C@H](NC(=O)[C@]2(C)CCCN2S(=O)(=O)c2cc(Cl)cc(Cl)c2)C(=O)O)cc1 | 1.88 | inhibition [6]: 2%
O=C(O)[C@H](Cc1ccc(OC(F)(F)F)cc1)NC(=O)[C@@H]1CCCN1S(=O)(=O)c1cc(Cl)cc(Cl)c1 | 0.86 | 
C[C@@]1(C(=O)N[C@@H](Cc2ccc(C#N)cc2)C(=O)O)CCCN1S(=O)(=O)c1cc(Cl)cc(Cl)c1 | 1.6 | inhibition [6]: 29%
O=C(O)[C@H](Cc1ccc(F)c(F)c1)NC(=O)[C@@H]1CCCN1S(=O)(=O)c1cc(Cl)cc(Cl)c1 | 0.48 | 
C[C@@]1(C(=O)N[C@H](Cc2ccccc2)C(=O)O)CCCN1S(=O)(=O)c1cc(Cl)cc(Cl)c1 | 152 | 
O=C(O)[C@H](Cc1cccc(C(F)(F)F)c1)NC(=O)[C@@H]1CCCN1S(=O)(=O)c1cc(Cl)cc(Cl)c1 | 3.2 | 
N#Cc1ccc(C[C@H](NC(=O)[C@@H]2CCCN2S(=O)(=O)c2cc(Cl)cc(Cl)c2)C(=O)O)cc1 | 0.79 | 
O=C(O)[C@H](Cc1ccccc1F)NC(=O)[C@@H]1CCCN1S(=O)(=O)c1cc(Cl)cc(Cl)c1 | 1.3 | 
C[C@@]1(C(=O)N[C@@H](Cc2ccc(C(F)(F)F)cc2)C(=O)O)CCCN1S(=O)(=O)c1cc(Cl)cc(Cl)c1 | 3.9 | inhibition [6]: 25%

Compound | IC50 [1] [nM] | also measured
C[C@@]1(C(=O)N[C@@H](Cc2ccncc2)C(=O)O)CCCN1S(=O)(=O)c1cc(Cl)cc(Cl)c1 | 1.31 | inhibition [6]: 13%
O=C(O)[C@H](Cc1ccc([N+](=O)[O-])cc1)NC(=O)[C@@H]1CCCN1S(=O)(=O)c1cc(Cl)cc(Cl)c1 | 0.3 | 
O=C(O)[C@H](Cc1ccccn1)NC(=O)[C@@H]1CCCN1S(=O)(=O)c1cc(Cl)cc(Cl)c1 | 26.5 | 
C[C@]1(C(=O)N[C@@H](Cc2ccccc2)C(=O)O)CCCN1S(=O)(=O)c1cc(Cl)cc(Cl)c1 | 2060 | 
O=C(O)[C@H](Cc1cccs1)NC(=O)[C@@H]1CCCN1S(=O)(=O)c1cc(Cl)cc(Cl)c1 | 0.92 | IC50 [8]: 2850 nM
C[C@@]1(C(=O)N[C@@H](Cc2cccc(F)c2)C(=O)O)CCCN1S(=O)(=O)c1cc(Cl)cc(Cl)c1 | 0.9 | inhibition [6]: < 5%
C[C@@]1(C(=O)N[C@@H](Cc2ccccc2F)C(=O)O)CCCN1S(=O)(=O)c1cc(Cl)cc(Cl)c1 | 1.7 | inhibition [6]: < 5%
C[C@@]1(C(=O)N[C@@H](Cc2ccc(OC(F)(F)F)cc2)C(=O)O)CCCN1S(=O)(=O)c1cc(Cl)cc(Cl)c1 | 3.8 | Vd [3]: 1.4 L/kg; clearance [5]: 36 mL/min/kg; half-life [7]: 54 min
C[C@@]1(C(=O)N[C@@H](Cc2ccc(I)cc2)C(=O)O)CCCN1S(=O)(=O)c1cc(Cl)cc(Cl)c1 | 4.77 | inhibition [2]: 58%
C[C@@]1(C(=O)N[C@@H](Cc2cccs2)C(=O)O)CCCN1S(=O)(=O)c1cc(Cl)cc(Cl)c1 | 1.61 | inhibition [2]: 45%
CCc1ccc(C[C@H](NC(=O)[C@@H]2CCCN2S(=O)(=O)c2cc(Cl)cc(Cl)c2)C(=O)O)cc1 | 0.44 | 
C[C@@]1(C(=O)N[C@@H](Cc2ccc(O)cc2)C(=O)O)CCCN1S(=O)(=O)c1cc(Cl)cc(Cl)c1 | 0.86 | 
O=C(O)[C@H](Cc1cccc(Cl)c1)NC(=O)[C@@H]1CCCN1S(=O)(=O)c1cc(Cl)cc(Cl)c1 | 3.6 | 
O=C(O)[C@H](Cc1ccc(I)cc1)NC(=O)[C@@H]1CCCN1S(=O)(=O)c1cc(Cl)cc(Cl)c1 | 0.33 | 
C[C@@]1(C(=O)N[C@@H](Cc2ccccc2)C(=O)O)CCCN1S(=O)(=O)c1cc(Cl)cc(Cl)c1 | 1 | IC50 [8]: 3550 nM
O=C(O)[C@H](Cc1ccc(Cl)cc1)NC(=O)[C@@H]1CCCN1S(=O)(=O)c1cc(Cl)cc(Cl)c1 | 0.85 | 
O=C(O)[C@H](Cc1cccc(F)c1)NC(=O)[C@@H]1CCCN1S(=O)(=O)c1cc(Cl)cc(Cl)c1 | 0.67 | 
C[C@@]1(C(=O)N[C@@H](Cc2cccc(Cl)c2)C(=O)O)CCCN1S(=O)(=O)c1cc(Cl)cc(Cl)c1 | 1.7 | inhibition [6]: < 16%
O=C(O)[C@H](Cc1cscn1)NC(=O)[C@@H]1CCCN1S(=O)(=O)c1cc(Cl)cc(Cl)c1 | 0.73 | IC50 [8]: 2350 nM
C[C@@]1(C(=O)N[C@@H](Cc2ccccc2Cl)C(=O)O)CCCN1S(=O)(=O)c1cc(Cl)cc(Cl)c1 | 1.8 | inhibition [6]: < 16%
